The text below walks through data of PubChem BioAssay AID743341 (Broad Institute, 2014).

Inconclusive results are not listed.

The test has as its system C2C12 myotubes + simvastatin, MHC imaging tube length, 48 h. Description: suppression of statin-driven myotube degradation – imaging, C2C12 myotubes, MHC immunostaining, dry powder, orthogonal assay for statin myotoxicity suppressor project, confirmation (AID 743341).
Consider `C[C@H]1CN([C@@H](C)CO)S(=O)(=O)c2ccc(C#Cc3ccc(F)cc3)cc2O[C@@H]1CN(C)S(=O)(=O)c1cn(C)cn1`, for which the AC40 is 13 µM.

For the compound `C[C@@H]1CN([C@@H](C)CO)C(=O)c2cc(NC(=O)Cc3cn(C)c4ccccc34)ccc2O[C@@H]1CN(C)Cc1ccc(C(=O)Nc2ccccc2N)cc1`, the AC40 was 10.5 µM.

Consider `C[C@H]1CN([C@@H](C)CO)C(=O)Cc2cc(NC(=O)CCCCCC(=O)Nc3ccccc3N)ccc2O[C@H]1CN(C)Cc1ccc(Oc2ccccc2)cc1`, for which the AC40 is 3.07 µM.

`C[C@@H]1CN([C@@H](C)CO)C(=O)c2cc(NC(=O)Cc3cn(C)c4ccccc34)ccc2O[C@H]1CN(C)Cc1ccc(C(=O)Nc2ccccc2N)cc1`: the AC40 was 10.9 µM.

Regarding `C[C@@H]1CN([C@H](C)CO)C(=O)c2cc(NC(=O)Nc3cccc4ccccc34)ccc2O[C@@H]1CN(C)Cc1ccc(C(=O)Nc2ccccc2N)cc1`, the AC40 is 6.47 µM.

For the compound `C[C@H](CO)N1C[C@H](C)[C@H](CN(C)Cc2ccc(C(=O)Nc3ccccc3N)cc2)Oc2ccc(NC(=O)Nc3ccc(F)cc3)cc2CC1=O`, the AC40 is 0.655 µM.

Turning to `C[C@H](CO)N1C[C@H](C)[C@@H](CN(C)Cc2ccc(C(=O)Nc3ccccc3N)cc2)Oc2ccc(NC(=O)Cc3cn(C)c4ccccc34)cc2C1=O`, the AC40 is 10.2 µM.

In the case of `C[C@@H]1CN([C@@H](C)CO)C(=O)c2cccc(NC(=O)Nc3ccc4c(c3)OCO4)c2O[C@H]1CN(C)Cc1ccc(C(=O)Nc2ccccc2N)cc1`, the AC40 was 7.66 µM.

Turning to `C[C@@H]1CN([C@H](C)CO)C(=O)c2cccc(NC(=O)c3nc4ccccc4s3)c2O[C@@H]1CN(C)Cc1ccc(C(=O)Nc2ccccc2N)cc1`, the AC40 is 1.79 µM.

Regarding `C[C@H]1CN([C@@H](C)CO)C(=O)Cc2cc(NC(=O)Nc3cccc4ccccc34)ccc2O[C@H]1CN(C)Cc1ccc(C(=O)Nc2ccccc2N)cc1`, the AC40 was 4.57 µM.

As for `C[C@H]1CN([C@@H](C)CO)C(=O)Cc2cc(NC(=O)CCCCCC(=O)Nc3ccccc3N)ccc2O[C@H]1CN(C)CC1CCCCC1`, the AC40 is 8.03 µM.

Regarding `C[C@@H]1CN([C@H](C)CO)C(=O)Cc2cc(NC(=O)C3CCCCC3)ccc2O[C@H]1CN(C)Cc1ccc(Cl)c(Cl)c1`, the AC40 is 7.84 µM.

Turning to `C[C@H](CO)N1C[C@H](C)[C@H](CN(C)Cc2ccc(C(=O)Nc3ccccc3N)cc2)Oc2ccc(NC(=O)Nc3cccc4ccccc34)cc2C1=O`, the AC40 was 5.9 µM.

As to `C[C@H]1CN([C@@H](C)CO)C(=O)Cc2cc(NC(=O)CCCCCC(=O)Nc3ccccc3N)ccc2O[C@H]1CN(C)Cc1ccc(C(F)(F)F)cc1`, the AC40 was 10.3 µM.
